In experiment [1] the test system is experimental autoimmune encephalomyelitis (EAE). As to the kind of experiment: combination efficacy experiment in rat EAE model. The class given is in vivo, Female Lewis rats. The note with it: FIG. 1, DMF 120 mg/kg q.d., ponesimod 100 mg/kg q.d., from day 0; for effect on clinical course of EAE (clinical score): n=11/group. The procedure:
FIG. 1: Efficacy of ponesimod, DMF or its combination in rat EAE (n=11/group). Clinical scoring was performed daily by an independent examiner in a blinded manner. SEM=standard error of the mean. Female Lewis rats are immunized with an emulsion of myelin basic protein (MBP) from Guinea pig in complete Freund's adjuvant. A total of 200 micrograms of MBP is injected per rat at two sites subcutaneously (right paw and base of tail). Within 10 days the rats develop signs of paralysis which will be graded on a scale from 0 to 15 assessing the tail and each limb individually according to the method originally described by Weaver A. et al., FASEB J., 2005, 19(12): 1668-1670. The disease takes an acute monophasic course and is self-remitting. Usually by day 21 clinical scores reach values below 3.0. Groups of 10 to 14 rats are dosed starting at the day of disease induction (day 0) with different doses of DMF in the range between 40 and 160 mg/kg once daily (q.d.). Clinical scores are assessed on a daily basis and disease development is compared between vehicle-treated rats and rats receiving DMF (vehicle: 0.5% Methylcellulose/0.5% Tween® 80). In parallel, body weights of the rats are monitored on a daily basis to follow general health. The experiment is terminated at day 21 whereupon hematology can be measured. The combination efficacy experiment is performed in the same rat EAE model as described for the first pilot experiment. It consists of four treatment groups: • 1. Vehicle (0.5% Methylcellulose/0.5% Tween® 80) q.d., from day 0 • 2. DMF (120 mg/kg) q.d., from day 0 • 3. Ponesimod (100 mg/kg) q.d., from day 0 • 4. DMF (120 mg/kg) q.d., from day 0+ponesimod (100 mg/kg) q.d., from day 0 In life and termination endpoints are the same as described for the first pilot experiment.

For experiment [2] the test system is unchanged. As to the kind of experiment: rat monophasic EAE model, DMF pilot experiment. The class given is in vivo, Female Lewis rats. The following applies: first pilot experiment, dose 120 mg/kg q.d. from day 0. The procedure: The efficacy of dimethyl fumarate (DMF) in acute monophasic models of experimental autoimmune encephalomyelitis (EAE) can be determined in a pilot experiment.
Female Lewis rats are immunized with an emulsion of myelin basic protein (MBP) from Guinea pig in complete Freund's adjuvant. A total of 200 micrograms of MBP is injected per rat at two sites subcutaneously (right paw and base of tail). Within 10 days the rats develop signs of paralysis which will be graded on a scale from 0 to 15 assessing the tail and each limb individually according to the method originally described by Weaver A. et al., FASEB J., 2005, 19(12): 1668-1670. The disease takes an acute monophasic course and is self-remitting. Usually by day 21 clinical scores reach values below 3.0.
Groups of 10 to 14 rats are dosed starting at the day of disease induction (day 0) with different doses of DMF in the range between 40 and 160 mg/kg once daily (q.d.). Clinical scores are assessed on a daily basis and disease development is compared between vehicle-treated rats and rats receiving DMF (vehicle: 0.5% Methylcellulose/0.5% Tween® 80). In parallel, body weights of the rats are monitored on a daily basis to follow general health. The experiment is terminated at day 21 whereupon hematology can be measured.
Plasma samples can be taken for compound concentration determination and for the measurement of protein markers. […]

Experiment [3] relates to moderate to severe chronic plaque psoriasis; relapsing-remitting multiple sclerosis. The following applies: patients with moderate to severe chronic plaque psoriasis and with relapsing-remitting multiple sclerosis; cited from earlier work.
In experiment [4] the test system is peripheral blood lymphocytes. The note with it: oral administration; cited from earlier work.
Experiment [5] relates to lymphocyte count in peripheral blood. The experiment can be described thus: ponesimod pilot experiment, lymphocyte count in peripheral blood. The class given is in vivo. The note with it: second pilot experiment, healthy female Lewis rats, dose 100 mg/kg. Here is the method: In parallel to the measurement of efficacy of DMF in the EAE model, a second pilot experiment is required. Healthy female Lewis rats will receive ponesimod at different doses in the range from 0.3 to 100 mg/kg. The goal is to assess the dose-effect relationship of ponesimod on lymphocyte count in peripheral blood in this strain of rat.

Structures are written as SMILES. Counter-ions that a name gives are not always drawn.

The values that follow come from patent US12409167B2, “Pharmaceutical combination comprising a selective S1P1 receptor agonist” (Vanda Pharmaceuticals Inc., priority 2014, dated 2025).

Take `COC(=O)/C=C/C(=O)OC` [DMF, dimethyl fumarate]: the “effect on clinical score from day 16 onwards” value in experiment [1] (from day 16 onwards) is “no effect on clinical score anymore”. Further, the “effect on clinical course of EAE (clinical score)” value in experiment [1] is given as “moderate effect during the ascending phase of the disease”. In addition, the “efficacy on EAE scores” value in experiment [2] is “partial efficacy between none and strongest efficacy”.
For the compound `CCC/N=C1\S/C(=C\c2ccc(OC[C@H](O)CO)c(Cl)c2)C(=O)N1c1ccccc1C` [ponesimod, (R)-5-[3-chloro-4-(2,3-dihydroxy-propoxy)-benz[Z]ylidene]-2-([Z]-propylimino)-3-o-tolyl-thiazolidin-4-one], the “clinical benefit in phase II trials” value in experiment [3] is “has shown clinical benefit”. Besides, the “effect on clinical course of EAE (clinical score)” value in experiment [1] was “marked and statistically significant effect”. Besides, the “number of peripheral blood lymphocytes” value in experiment [4] is “consistent, sustained, and dose-dependent reduction”. Besides, the “efficacy on lymphocyte count reduction” value in experiment [5] was “full efficacy on lymphocyte count reduction”.
